Reference: patent EP0183174A2, “Substituted phenoxy urea, processes for its preparation and herbicide containing it as active ingredient” (KUMIAI CHEMICAL INDUSTRY CO., LTD., priority 1984, dated 1986)

Experiments:
cotton = assay: Test Example 3: herbicidal test by upland soil treatment (phytotoxicity); format: in vivo; design: key: 5: Withered; 4.5: Herbicidal effect (or phytotoxicity) in a range of 90 to 99%; 4: Herbicidal effect (or phytotoxicity) in a range of 80 to 89%; 3.5: Herbicidal effect (or phytotoxicity) in a range of 70 to 79%; 3: Herbicidal effect (or phytotoxicity) in a range of 60 to 69%; 2.5: Herbicidal effect (or phytotoxicity) in a range of 50 to 59%; 2: Herbicidal effect (or phytotoxicity) in a range of 40 to 49%; 1.5: Herbicidal effect (or phytotoxicity) in a range of 30 to 39%; 1: Herbicidal effect (or phytotoxicity) in a range of 20 to 29%; 0.5: Herbicidal effect (or phytotoxicity) in a range of 1 to 19%; 0: No herbicidal effect (or no phytotoxicity); conditions: evaluated twenty days after application
Description: (§1) Into each plastic pot of 600 cm^2, upland soil was filled, then seeds of barnyardgrass, crabgrass, green foxtail, redroot pigweed, rice flatsedge, rice, wheat, maize, soybean, cotton and sugar beet were sown, and they were covered with soil. A predetermined amount of the wettable powder prepared from the test compound in accordance with Formulation Example 3 and diluted with water, was uniformly applied to the surface of the soil at an application rate of 1000 liter/hectare by means of a small size spray. They were grown in a greenhouse, and twenty days after the application, the herbicidal effects and phytotoxicity were evaluated in accordance with the standards as identified in Table 5.

maize = assay: as above; format: in vivo; design: key: 5: Withered; 4.5: Herbicidal effect (or phytotoxicity) in a range of 90 to 99%; 4: Herbicidal effect (or phytotoxicity) in a range of 80 to 89%; 3.5: Herbicidal effect (or phytotoxicity) in a range of 70 to 79%; 3: Herbicidal effect (or phytotoxicity) in a range of 60 to 69%; 2.5: Herbicidal effect (or phytotoxicity) in a range of 50 to 59%; 2: Herbicidal effect (or phytotoxicity) in a range of 40 to 49%; 1.5: Herbicidal effect (or phytotoxicity) in a range of 30 to 39%; 1: Herbicidal effect (or phytotoxicity) in a range of 20 to 29%; 0.5: Herbicidal effect (or phytotoxicity) in a range of 1 to 19%; 0: No herbicidal effect (or no phytotoxicity); conditions: evaluated twenty days after application
Description: as §1

CN(C)C(=O)NOc1cc(Cl)ccc1Cl [Compound No. 1, 3-(2,5-Dichlorophenoxy)-1,1-dimethyl urea]
0: Phytotoxicity Cotton (cotton; Dose 1 kg/HA) | Phytotoxicity Cotton (cotton; Dose 4 kg/HA) | Phytotoxicity Maize (maize; Dose 1 kg/HA) | Phytotoxicity Maize (maize; Dose 4 kg/HA)
